Here are results for 13 compounds from PubChem BioAssay (NCI).

Test systems include XF 498 CNS; DLD-1 colon; RXF-631 renal; DMS 114 small cell lung; SNB-78 CNS; LXFL 529 NSCLC; M19-MEL melanoma; HOP-18 NSCLC; MDA-N.
Holding throughout (test): NCI-60 cell line screen, 48 h

Several values for one entry are separate records, joined by “and”; a condition that tells them apart may be missing. Identical values can stand only once.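 Method: 48-hour compound exposure of cells in 96-well plates, five concentrations, linear interpolation of endpoints. GI50 = concentration required for 50% inhibition of growth. TGI denotes the concentration required for complete inhibition of growth.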

Take `C[N+](C)(C)C1CC([N+](C)(C)C)C2c3ccccc3C21` (stereo not given): the TGI in the assay with XF 498 CNS, in the assay with DLD-1 colon, in the assay on RXF-631 renal, in the assay with DMS 114 small cell lung, with SNB-78 CNS and in the assay with LXFL 529 NSCLC was > 100 µM each time. The TGI in the assay on M19-MEL melanoma was > 100 µM.

Take `Cc1[nH]c2ccccc2c1C1=NO/C(=N\O)C(c2c(C)[nH]c3ccccc23)C1` (stereo not given): the TGI with XF 498 CNS, with DLD-1 colon, in the assay on RXF-631 renal, in the assay on DMS 114 small cell lung, in the assay with HOP-18 NSCLC and with SNB-78 CNS was > 100 µM in each case. Also, the TGI with LXFL 529 NSCLC and in the assay with M19-MEL melanoma was > 100 µM in each case.

With `CCOC(=O)c1c(-c2ccc(OC)c(O)c2)c(C#N)c(=S)n(C2OC(COC(C)=O)C(OC(C)=O)C(OC(C)=O)C2OC(C)=O)c1-c1ccccc1` (stereo not given), in the assay on MDA-N, the GI50 is 16.8 µM and > 100 µM; the TGI is 37.8 µM and > 100 µM.

With `CN(/N=C/c1ccccc1O)c1ccc2ccccc2n1`, the TGI in the assay on MDA-N is > 100 µM.

As to `CN=C1CN=C(OP(=O)(N2CCOCC2)N2CCOCC2)c2cc(Cl)ccc2N1`, the TGI in the assay with XF 498 CNS, with DLD-1 colon, with RXF-631 renal, in the assay on DMS 114 small cell lung, with HOP-18 NSCLC and with SNB-78 CNS was > 100 µM each time. Further, the TGI in the assay with LXFL 529 NSCLC and with M19-MEL melanoma was > 100 µM throughout.

With `Brc1ccc(C=NC23CC4CC(CC(C4)C2)C3)cc1`, the TGI with XF 498 CNS, in the assay with DLD-1 colon, in the assay with RXF-631 renal, in the assay on DMS 114 small cell lung, with HOP-18 NSCLC and with SNB-78 CNS was > 100 µM in each case. In addition, the TGI with LXFL 529 NSCLC and with M19-MEL melanoma was > 100 µM throughout.

For `CC(=O)OC1=C2CC[C@@H]3C(CC[C@@]4(C)C3CC[C@@H]4OC(C)=O)[C@@]2(C)CC(C#N)C1=O` (stereo not given in full), the TGI was determined as 80.8 µM in the assay with XF 498 CNS; 69.8 µM with DLD-1 colon; 37.1 µM in the assay with DMS 114 small cell lung; 90.8 µM with SNB-78 CNS; 91.3 µM in the assay on LXFL 529 NSCLC.

Regarding `CCC[CH2][Sn]1([CH2]CCC)[O]CC[S]1`, the GI50 with XF 498 CNS was 0.476 µM; with DLD-1 colon it was 0.47 µM; in the assay on RXF-631 renal, 285 nM; in the assay on DMS 114 small cell lung it was 272 nM; in the assay with HOP-18 NSCLC it was 717 nM; in the assay with SNB-78 CNS, 0.494 µM. Besides, the figures for the GI50 in the assay with LXFL 529 NSCLC and in the assay with M19-MEL melanoma were 0.134 µM and 0.475 µM, respectively. Moreover, the TGI in the assay with XF 498 CNS came out at 1.02 µM; with DLD-1 colon, 1.73 µM; in the assay with RXF-631 renal, 1.34 µM; with DMS 114 small cell lung, 1.26 µM; with HOP-18 NSCLC, 1.89 µM; in the assay on SNB-78 CNS, 2.26 µM. Further, the TGI in the assay with LXFL 529 NSCLC came out at 0.579 µM; in the assay on M19-MEL melanoma it was 2.75 µM.

`C/C(=C\C(C[C@](C)(O)C(O)CCC#C[Si](C)(C)C)S(=O)(=O)c1ccccc1)CC/C=C/CO[Si](C)(C)C(C)(C)C` (stereo not given in full): the TGI with XF 498 CNS came to 26.2 µM; in the assay on DLD-1 colon, 48.2 µM; with RXF-631 renal, 23.9 µM; in the assay with DMS 114 small cell lung, 32.9 µM; with SNB-78 CNS it was 35.6 µM; with M19-MEL melanoma, 32.5 µM.

For `[Co].[O-]c1cccnc1C=Nc1ccccc1.[OH3+]`, the GI50 was > 100 µM in the assay with XF 498 CNS; 90.7 µM in the assay with DLD-1 colon; > 100000 nM in the assay on DMS 114 small cell lung; > 100 µM in the assay on SNB-78 CNS; 47.2 µM in the assay on LXFL 529 NSCLC; > 100 µM in the assay on M19-MEL melanoma. In addition, the TGI in the assay on XF 498 CNS, in the assay with DLD-1 colon, in the assay on DMS 114 small cell lung, in the assay with SNB-78 CNS, in the assay on LXFL 529 NSCLC and in the assay with M19-MEL melanoma was > 100 µM in each case.

With `CC[O-].CC[O-].O=C([CH-]C(=O)c1ccccc1)CCCCCCC(=O)[CH-]C(=O)c1ccccc1.[Ti+4]`, the GI50 in the assay on XF 498 CNS was > 100 µM; with DLD-1 colon it was > 100 µM; with HOP-18 NSCLC, > 100000 nM; in the assay on SNB-78 CNS, > 100 µM; with LXFL 529 NSCLC it was > 100 µM; in the assay on M19-MEL melanoma it was > 100 µM. For the same compound, the TGI in the assay on XF 498 CNS, in the assay with DLD-1 colon, in the assay with HOP-18 NSCLC, in the assay with SNB-78 CNS, with LXFL 529 NSCLC and in the assay with M19-MEL melanoma was > 100 µM throughout.

Turning to `COc1ccccc1NC(=O)C1=C(C)NC(C)=C(C(=O)Nc2ccccc2OC)C1c1ccccc1Cl`, the TGI with XF 498 CNS, in the assay on DLD-1 colon, with RXF-631 renal, with DMS 114 small cell lung, in the assay on HOP-18 NSCLC and with LXFL 529 NSCLC was > 100 µM in each case. The TGI with M19-MEL melanoma is > 100 µM.

Consider `O=C1NC2(CCCC2)C2CCCCC12O` (stereo not given), for which the TGI in the assay with XF 498 CNS, in the assay on DLD-1 colon, in the assay with RXF-631 renal, in the assay on DMS 114 small cell lung, with HOP-18 NSCLC and in the assay on SNB-78 CNS was > 100 µM in each case. The TGI in the assay on LXFL 529 NSCLC and with M19-MEL melanoma was > 100 µM in each case.
